Assay results published in the NIST ThermoML archive (doi:10.1021/acs.jced.8b00837).
Where “and” joins values, the source holds several entries; their conditions need not be identical. Identical values can stand only once.

Conditions: Liquid, Vibrating tube method

CCCCn1cc[n+](C)c1.O=S(=O)([O-])C(F)(F)F [1-butyl-3-methylimidazolium trifluoromethanesulfonate]
Conditions | mass density
283.14 K, 20345 kPa | 1320.61 kg/m3
283.15 K, 101 kPa | 1309.81 kg/m3 and 1309.8 kg/m3
283.15 K, 5337 kPa | 1312.37 kg/m3
283.15 K, 9906 kPa | 1315.03 kg/m3
283.15 K, 29997 kPa | 1325.6 kg/m3
283.15 K, 90097 kPa | 1353.37 kg/m3
283.15 K, 100086 kPa | 1357.13 kg/m3
283.15 K, 109957 kPa | 1361.36 kg/m3
283.15 K, 119997 kPa | 1365.53 kg/m3
283.15 K, 129993 kPa | 1369.54 kg/m3
283.15 K, 139996 kPa | 1373.39 kg/m3
283.16 K, 49996 kPa | 1335.42 kg/m3
283.16 K, 60363 kPa | 1340.27 kg/m3
283.16 K, 69993 kPa | 1344.64 kg/m3
283.16 K, 79621 kPa | 1348.88 kg/m3
283.17 K, 1225 kPa | 1310.35 kg/m3
283.17 K, 40094 kPa | 1330.63 kg/m3
288.15 K, 101 kPa | 1305.77 kg/m3
293.15 K, 101 kPa | 1301.75 kg/m3 and 1301.72 kg/m3
293.15 K, 9722 kPa | 1307 kg/m3
293.15 K, 20425 kPa | 1312.86 kg/m3
293.15 K, 29997 kPa | 1317.9 kg/m3
293.15 K, 49997 kPa | 1327.93 kg/m3
293.15 K, 69996 kPa | 1337.34 kg/m3
293.15 K, 89996 kPa | 1346.17 kg/m3
293.15 K, 109846 kPa | 1354.33 kg/m3
293.15 K, 119150 kPa | 1358.24 kg/m3
293.15 K, 129846 kPa | 1362.58 kg/m3
293.15 K, 138949 kPa | 1366.14 kg/m3
293.16 K, 40322 kPa | 1323.16 kg/m3
293.16 K, 60340 kPa | 1332.87 kg/m3
293.16 K, 100028 kPa | 1350.06 kg/m3
293.17 K, 80507 kPa | 1342.04 kg/m3
293.2 K, 1740 kPa | 1302.55 kg/m3
293.2 K, 4978 kPa | 1304.2 kg/m3
298.13 K, 30005 kPa | 1314.25 kg/m3
298.13 K, 90001 kPa | 1342.82 kg/m3
298.14 K, 59968 kPa | 1329.2 kg/m3
298.15 K, 101 kPa | 1297.74 kg/m3 and 1297.8 kg/m3
298.15 K, 1023 kPa | 1298.28 kg/m3
298.15 K, 10006 kPa | 1303.37 kg/m3
298.15 K, 19968 kPa | 1308.89 kg/m3
298.15 K, 40008 kPa | 1319.41 kg/m3
298.15 K, 49962 kPa | 1324.37 kg/m3
298.15 K, 70005 kPa | 1333.89 kg/m3
298.15 K, 79986 kPa | 1338.41 kg/m3
298.15 K, 99997 kPa | 1347.1 kg/m3
298.15 K, 109968 kPa | 1351.04 kg/m3
298.15 K, 120001 kPa | 1355.27 kg/m3
298.15 K, 139996 kPa | 1363.31 kg/m3
298.16 K, 5026 kPa | 1300.4 kg/m3
298.16 K, 130002 kPa | 1359.35 kg/m3
303.15 K, 101 kPa | 1293.74 kg/m3
313.13 K, 101 kPa | 1285.81 kg/m3
313.15 K, 101 kPa | 1285.7 kg/m3
313.15 K, 10395 kPa | 1291.48 kg/m3
313.15 K, 20326 kPa | 1296.92 kg/m3
313.15 K, 29996 kPa | 1302.11 kg/m3
313.15 K, 40009 kPa | 1307.36 kg/m3
313.15 K, 49994 kPa | 1312.48 kg/m3
313.15 K, 70102 kPa | 1322.42 kg/m3
313.15 K, 79871 kPa | 1327.08 kg/m3
313.15 K, 90021 kPa | 1331.79 kg/m3
313.15 K, 99922 kPa | 1336.27 kg/m3
313.15 K, 109826 kPa | 1340.63 kg/m3
313.15 K, 121633 kPa | 1345.69 kg/m3
313.15 K, 129825 kPa | 1349.1 kg/m3
313.15 K, 139153 kPa | 1352.88 kg/m3
313.16 K, 60130 kPa | 1317.55 kg/m3
313.2 K, 1097 kPa | 1286.27 kg/m3
313.2 K, 5364 kPa | 1288.67 kg/m3
333.09 K, 1557 kPa | 1270.96 kg/m3
333.1 K, 5234 kPa | 1273.19 kg/m3
333.11 K, 9847 kPa | 1275.96 kg/m3
333.14 K, 19578 kPa | 1281.68 kg/m3
333.15 K, 101 kPa | 1270.09 kg/m3 and 1270.06 kg/m3
333.15 K, 29996 kPa | 1287.62 kg/m3
333.15 K, 69992 kPa | 1308.75 kg/m3
333.15 K, 79293 kPa | 1313.31 kg/m3
333.15 K, 89992 kPa | 1318.4 kg/m3
333.15 K, 98041 kPa | 1322.14 kg/m3
333.15 K, 109813 kPa | 1327.45 kg/m3
333.16 K, 49998 kPa | 1298.5 kg/m3
333.16 K, 59777 kPa | 1303.59 kg/m3
333.16 K, 119774 kPa | 1331.81 kg/m3
333.16 K, 129813 kPa | 1336.09 kg/m3
333.16 K, 138881 kPa | 1339.86 kg/m3
333.17 K, 39827 kPa | 1293.05 kg/m3
343.15 K, 101 kPa | 1262.32 kg/m3
353.13 K, 5397 kPa | 1257.9 kg/m3
353.14 K, 1725 kPa | 1255.5 kg/m3
353.14 K, 10408 kPa | 1261.13 kg/m3
353.14 K, 60245 kPa | 1290.27 kg/m3
353.14 K, 69993 kPa | 1295.39 kg/m3
353.14 K, 79196 kPa | 1300.06 kg/m3
353.14 K, 119409 kPa | 1318.82 kg/m3
353.15 K, 101 kPa | 1254.61 kg/m3 and 1254.43 kg/m3
353.15 K, 49992 kPa | 1284.69 kg/m3
353.15 K, 89993 kPa | 1305.36 kg/m3
353.15 K, 97743 kPa | 1309.04 kg/m3
353.15 K, 109795 kPa | 1314.57 kg/m3
353.15 K, 129794 kPa | 1323.26 kg/m3
353.16 K, 40316 kPa | 1279.23 kg/m3
353.16 K, 139089 kPa | 1327.11 kg/m3
353.17 K, 29996 kPa | 1273.21 kg/m3
353.19 K, 20124 kPa | 1267.23 kg/m3
373.12 K, 78937 kPa | 1286.82 kg/m3
373.14 K, 1630 kPa | 1240.5 kg/m3
373.14 K, 4913 kPa | 1242.76 kg/m3
373.14 K, 40245 kPa | 1265.34 kg/m3
373.14 K, 69993 kPa | 1282.13 kg/m3
373.14 K, 89993 kPa | 1292.43 kg/m3
373.14 K, 99354 kPa | 1297.01 kg/m3
373.14 K, 109823 kPa | 1301.97 kg/m3
373.15 K, 101 kPa | 1239.37 kg/m3 and 1239.44 kg/m3
373.15 K, 20238 kPa | 1252.94 kg/m3
373.15 K, 29993 kPa | 1259.1 kg/m3
373.15 K, 49994 kPa | 1271.05 kg/m3
373.15 K, 59359 kPa | 1276.34 kg/m3
373.15 K, 118844 kPa | 1306.11 kg/m3
373.15 K, 129824 kPa | 1311 kg/m3
373.15 K, 139225 kPa | 1315.08 kg/m3
373.16 K, 10553 kPa | 1246.58 kg/m3
393.12 K, 20141 kPa | 1238.76 kg/m3
393.13 K, 29997 kPa | 1245.39 kg/m3
393.13 K, 39789 kPa | 1251.72 kg/m3
393.14 K, 10362 kPa | 1231.9 kg/m3
393.14 K, 99285 kPa | 1284.99 kg/m3
393.14 K, 118691 kPa | 1294.13 kg/m3
393.15 K, 101 kPa | 1224.37 kg/m3 and 1224.41 kg/m3
393.15 K, 49984 kPa | 1258.04 kg/m3
393.15 K, 69997 kPa | 1269.67 kg/m3
393.15 K, 89992 kPa | 1280.34 kg/m3
393.15 K, 109795 kPa | 1290.04 kg/m3
393.15 K, 129796 kPa | 1299.01 kg/m3
393.15 K, 139693 kPa | 1303.18 kg/m3
393.16 K, 60109 kPa | 1264.05 kg/m3
393.16 K, 79320 kPa | 1274.76 kg/m3
393.17 K, 1385 kPa | 1225.37 kg/m3
393.18 K, 5168 kPa | 1228.15 kg/m3
413.13 K, 1691 kPa | 1210.63 kg/m3
413.13 K, 99873 kPa | 1273.17 kg/m3
413.15 K, 101 kPa | 1209.6 kg/m3 and 1209.39 kg/m3
413.15 K, 5006 kPa | 1213.19 kg/m3
413.15 K, 80334 kPa | 1262.84 kg/m3
413.15 K, 89994 kPa | 1268.07 kg/m3
413.15 K, 109886 kPa | 1278.08 kg/m3
413.17 K, 129886 kPa | 1287.14 kg/m3
413.17 K, 139479 kPa | 1291.12 kg/m3
413.18 K, 69993 kPa | 1256.95 kg/m3
413.18 K, 119193 kPa | 1282.42 kg/m3
413.2 K, 10288 kPa | 1217.19 kg/m3
413.2 K, 19961 kPa | 1224.32 kg/m3
413.2 K, 29916 kPa | 1231.38 kg/m3
413.2 K, 39957 kPa | 1238.21 kg/m3
413.2 K, 49993 kPa | 1244.75 kg/m3
413.21 K, 59956 kPa | 1250.96 kg/m3
